System: HaCaT cells
Assay: Cell cytotoxicity test (CCK-8)
Type: cell-based, human
Conditions: 125-1,000 ppm, 24 hours, CCK-8, FIG. 6
Experimental: HaCaT cells are seeded into a 96 well plate at 10^5 cells/well. After attachment overnight, remove culture medium. The frozen peptide (KTTKS(SEQ ID NO: 1), CRGDS(SEQ ID NO: 2), and RRRRRR(SEQ ID NO: 3)) and the glucosamine derivative nanoparticles are respectively dissolved in serum-free medium (SFM) again (final concentration 1,000 ppm). Use SFM to carry out serial dilution and get concentrations of 500 ppm, 250 ppm, and 125 ppm. Then add 100 μl samples with different concentrations into the well plate (repeat four times and a group of samples added with SFM used as control group). After being cultured for 24 hours, remove culture medium and add 10 μl CCK-8 and 100 μl PBS into each of the wells. Then react at 37° C. for 2-3 hours and read absorbance at 450 nm. Cell viability is defined as a percentage of the absorbance of the respective test groups relative to the absorbance of the control group while the cell viability of the control group is set as 100%.

N[C@H]1C(O)O[C@H](CO)[C@@H](O)[C@@H]1O (stereo partly shown) [glucosamine]
cell viability trend with concentration: reduced a bit along with the increasing glucosamine concentration
